In ChEMBL document CHEMBL1201861, “Genomics of Drug Sensitity in Cancer screening data, Wellcome Trust Sanger Institute”:

Key:
Assay in all cases: cells
BCPAP = format: functional, cell-based, Homo sapiens; settings: Homo sapiens, BCPAP;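 note: growth inhibition of BCPAP cells, read out in a cell viability assay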
Description: SANGER: Inhibition of human BCPAP cell growth in a cell viability assay.

DSH1 = format: functional, cell-based, Homo sapiens; settings: Homo sapiens, DSH1;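 note: growth inhibition of human DSH1 cells, measured with a cell viability readout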
Description: SANGER: Inhibition of human DSH1 cell growth in a cell viability assay.

T98G = format: functional, cell-based, Homo sapiens; settings: Homo sapiens, T98G;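 note: growth inhibition of T98G cells, read out by a cell viability assay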
Description: SANGER: Inhibition of human T98G cell growth in a cell viability assay.

EW-16 = format: functional, cell-based, Homo sapiens; settings: Homo sapiens, EW-16;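 note: growth inhibition of human EW-16 cells, read out as cell viability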
Description: SANGER: Inhibition of human EW-16 cell growth in a cell viability assay.

HT-144 = format: functional, cell-based, Homo sapiens; settings: Homo sapiens, HT-144
Description: SANGER: Inhibition of human HT-144 cell growth in a cell viability assay.

SW1990 = format: functional, cell-based, Homo sapiens; settings: Homo sapiens, SW1990;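 note: cell growth inhibition determined with a viability assay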
Description: SANGER: Inhibition of human SW1990 cell growth in a cell viability assay.

COLO-829 = format: functional, cell-based, Homo sapiens; settings: Homo sapiens, COLO-829
Description: SANGER: Inhibition of human COLO-829 cell growth in a cell viability assay.

HEL = format: functional, cell-based, Homo sapiens; settings: Homo sapiens, HEL;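 note: growth inhibition of HEL cells, read out with a cell viability assay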
Description: SANGER: Inhibition of human HEL cell growth in a cell viability assay.

ABC-1 = format: functional, cell-based, Homo sapiens; settings: Homo sapiens, ABC-1;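 note: growth inhibition of human ABC-1 cells, read out by a cell viability assay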
Description: SANGER: Inhibition of human ABC-1 cell growth in a cell viability assay.

SK-MEL-24 = format: functional, cell-based; settings: Homo sapiens;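 note: growth inhibition read out by a cell viability assay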
Description: SANGER: Inhibition of human SK-MEL-24 cell growth in a cell viability assay.

639-V = format: functional, cell-based, Homo sapiens; settings: Homo sapiens, 639-V;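 note: growth inhibition of 639-V cells, read out with a cell viability assay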
Description: SANGER: Inhibition of human 639-V cell growth in a cell viability assay.

SCC-25 = format: functional, cell-based, Homo sapiens; settings: Homo sapiens, SCC-25;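 note: growth inhibition of SCC-25 cells, measured with a cell viability assay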
Description: SANGER: Inhibition of human SCC-25 cell growth in a cell viability assay.

A 172 = format: functional, cell-based, Homo sapiens; settings: Homo sapiens, A 172;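 note: growth inhibition of A172 cells, measured with a cell viability readout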
Description: SANGER: Inhibition of human A172 cell growth in a cell viability assay.

HL-60 = format: functional, cell-based; settings: Homo sapiens;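 note: growth inhibition of human HL-60 cells, read out with a cell viability assay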
Description: SANGER: Inhibition of human HL-60 cell growth in a cell viability assay.

769-P = format: functional, cell-based, Homo sapiens; settings: Homo sapiens, 769-P
Description: SANGER: Inhibition of human 769-P cell growth in a cell viability assay.

UACC-62 = format: functional, cell-based, Homo sapiens; settings: Homo sapiens, UACC-62;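 note: growth inhibition of human UACC-62 cells, read out by a cell viability assay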
Description: SANGER: Inhibition of human UACC-62 cell growth in a cell viability assay.

NCI-H1755 = format: functional, cell-based, Homo sapiens; settings: Homo sapiens, NCI-H1755;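 note: cell viability readout used to measure growth inhibition of NCI-H1755 cells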
Description: SANGER: Inhibition of human NCI-H1755 cell growth in a cell viability assay.

OE33 = format: functional, cell-based, Homo sapiens; settings: Homo sapiens, OE33;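 note: growth inhibition of human OE33 cells, measured by a cell viability assay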
Description: SANGER: Inhibition of human OE33 cell growth in a cell viability assay.

CHL-1 = format: functional, cell-based, Homo sapiens; settings: Homo sapiens, CHL-1;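 note: cell growth inhibition, read out with a cell viability assay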
Description: SANGER: Inhibition of human CHL-1 cell growth in a cell viability assay.

D-263MG = format: functional, cell-based, Homo sapiens; settings: Homo sapiens, D-263MG
Description: SANGER: Inhibition of human D-263MG cell growth in a cell viability assay.

UACC-257 = format: functional, cell-based, Homo sapiens; settings: Homo sapiens, UACC-257
Description: SANGER: Inhibition of human UACC-257 cell growth in a cell viability assay.

SK-OV-3 = format: functional, cell-based, Homo sapiens; settings: Homo sapiens, SK-OV-3;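 note: growth inhibition of SK-OV-3 human cells, read out with a cell viability assay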
Description: SANGER: Inhibition of human SK-OV-3 cell growth in a cell viability assay.

RO82-W-1 = format: functional, cell-based, Homo sapiens; settings: Homo sapiens, RO82-W-1;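 note: growth inhibition of human RO82-W-1 cells, measured with a cell viability assay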
Description: SANGER: Inhibition of human RO82-W-1 cell growth in a cell viability assay.

DU-4475 = format: functional, cell-based; settings: Homo sapiens
Description: SANGER: Inhibition of human DU-4475 cell growth in a cell viability assay.

SNB-75 = format: functional, cell-based, Homo sapiens; settings: Homo sapiens, SNB-75;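 note: cell viability assay measuring growth inhibition of human SNB-75 cells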
Description: SANGER: Inhibition of human SNB75 cell growth in a cell viability assay.

A704 = format: functional, cell-based, Homo sapiens; settings: Homo sapiens, A704;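 note: growth inhibition of human A704 cells, read out with a cell viability assay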
Description: SANGER: Inhibition of human A704 cell growth in a cell viability assay.

BB65-RCC = format: functional, cell-based, Homo sapiens; settings: Homo sapiens, BB65-RCC;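 note: growth inhibition of the cell line, measured with a cell viability assay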
Description: SANGER: Inhibition of human BB65-RCC cell growth in a cell viability assay.

ONS-76 = format: functional, cell-based, Homo sapiens; settings: Homo sapiens, ONS-76;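 note: growth inhibition of human ONS-76 cells, read out with a cell viability assay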
Description: SANGER: Inhibition of human ONS-76 cell growth in a cell viability assay.

NCI-H727 = format: functional, cell-based, Homo sapiens; settings: Homo sapiens, NCI-H727;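 note: growth inhibition of human NCI-H727 cells, read out with a cell viability assay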
Description: SANGER: Inhibition of human NCI-H727 cell growth in a cell viability assay.

LN-405 = format: functional, cell-based, Homo sapiens; settings: Homo sapiens, LN-405
Description: SANGER: Inhibition of human LN-405 cell growth in a cell viability assay.

NCI-H1092 = format: functional, cell-based; settings: Homo sapiens;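 note: cell growth inhibition measured with a cell viability assay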
Description: SANGER: Inhibition of human NCI-H1092 cell growth in a cell viability assay.

C32 = format: functional, cell-based, Homo sapiens; settings: Homo sapiens, C32;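 note: cell viability assay, with IC50 reflecting inhibition of C32 cell growth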
Description: SANGER: Inhibition of human C32 cell growth in a cell viability assay.

HCC1937 = format: functional, cell-based, Homo sapiens; settings: Homo sapiens, HCC1937;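 note: growth inhibition measured with a cell viability read-out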
Description: SANGER: Inhibition of human HCC1937 cell growth in a cell viability assay.

SNU1 = format: functional, cell-based; settings: Homo sapiens;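 note: growth inhibition of human NCI-SNU-1 cells, measured with a cell viability assay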
Description: SANGER: Inhibition of human NCI-SNU-1 cell growth in a cell viability assay.

KYSE-520 cell line = format: functional, cell-based, Homo sapiens; settings: Homo sapiens, KYSE-520;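 note: growth inhibition of human KYSE-520 cells, read out with a viability assay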
Description: SANGER: Inhibition of human KYSE-520 cell growth in a cell viability assay.

RH-1 = format: functional, cell-based, Homo sapiens; settings: Homo sapiens, RH-1;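 note: growth inhibition of human RH-1 cells, read out with a cell viability assay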
Description: SANGER: Inhibition of human RH-1 cell growth in a cell viability assay.

KOSC-2 = format: functional, cell-based, Homo sapiens; settings: Homo sapiens, KOSC-2;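 note: growth inhibition of KOSC-2 cells, read out by a cell viability assay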
Description: SANGER: Inhibition of human KOSC-2 cell growth in a cell viability assay.

LAN-6 = format: functional, cell-based, Homo sapiens; settings: Homo sapiens, LAN-6;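 note: growth inhibition of LAN-6 cells, determined with a cell viability assay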
Description: SANGER: Inhibition of human LAN-6 cell growth in a cell viability assay.

ES1 = format: functional, cell-based, Homo sapiens; settings: Homo sapiens, ES1;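 note: growth inhibition of ES1 cells, read out with a cell viability assay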
Description: SANGER: Inhibition of human ES1 cell growth in a cell viability assay.

RPMI-8866 = format: functional, cell-based; settings: Homo sapiens
Description: SANGER: Inhibition of human RPMI-8866 cell growth in a cell viability assay.

Daoy = format: functional, cell-based, Homo sapiens; settings: Homo sapiens, Daoy;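 note: daoy cell growth inhibition, read out as cell viability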
Description: SANGER: Inhibition of human Daoy cell growth in a cell viability assay.

J-RT3-T3-5 = format: functional, cell-based; settings: Homo sapiens;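 note: cell viability assay measuring growth inhibition of human J-RT3-T3-5 cells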
Description: SANGER: Inhibition of human J-RT3-T3-5 cell growth in a cell viability assay.

MHH-ES-1 = format: functional, cell-based, Homo sapiens; settings: Homo sapiens, MHH-ES-1;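 note: cell growth inhibition measured by a cell viability assay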
Description: SANGER: Inhibition of human MHH-ES-1 cell growth in a cell viability assay.

HuP-T3 = format: functional, cell-based, Homo sapiens; settings: Homo sapiens, HuP-T3;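 note: HuP-T3 cell growth inhibition, read out with a cell viability assay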
Description: SANGER: Inhibition of human HuP-T3 cell growth in a cell viability assay.

Panc1005 = format: functional, cell-based, Homo sapiens; settings: Homo sapiens, Panc1005;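 note: growth inhibition of human PANC-10-05 cells, measured by a cell viability assay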
Description: SANGER: Inhibition of human PANC-10-05 cell growth in a cell viability assay.

NCI-H1650 = format: functional, cell-based, Homo sapiens; settings: Homo sapiens, NCI-H1650;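 note: growth inhibition of human NCI-H1650 cells measured by a cell viability assay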
Description: SANGER: Inhibition of human NCI-H1650 cell growth in a cell viability assay.

JVM-2 = format: functional, cell-based; settings: Homo sapiens;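 note: growth inhibition of JVM-2 cells determined by a cell viability assay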
Description: SANGER: Inhibition of human JVM-2 cell growth in a cell viability assay.

S-117 = format: functional, cell-based, Homo sapiens; settings: Homo sapiens, S-117
Description: SANGER: Inhibition of human S-117 cell growth in a cell viability assay.

CAS-1 = format: functional, cell-based, Homo sapiens; settings: Homo sapiens, CAS-1;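 note: growth inhibition of CAS-1 cells, measured with a cell viability assay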
Description: SANGER: Inhibition of human CAS-1 cell growth in a cell viability assay.

IST-MEL1 = format: functional, cell-based, Homo sapiens; settings: Homo sapiens, IST-MEL1;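 note: growth inhibition of the cell line, read out with a cell viability assay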
Description: SANGER: Inhibition of human IST-MEL1 cell growth in a cell viability assay.

D-392MG = format: functional, cell-based, Homo sapiens; settings: Homo sapiens, D-392MG

Measured: IC50

Nc1ccn([C@@H]2O[C@H](CO)[C@@H](O)[C@@H]2O)c(=O)n1 [CYTARABINE]
501 nM: BCPAP
1800 nM: OE33
666 nM: UACC-62
13 nM: ES1
323 nM: MHH-ES-1
1860 nM: COLO-829
856 nM: HuP-T3
266 nM: EW-16
532 nM: Daoy
68.4 nM: J-RT3-T3-5
96.8 nM: SNU1
1720 nM: T98G
740 nM: RPMI-8866
802 nM: Panc1005
1230 nM: HT-144
1040 nM: CHL-1
1170 nM: D-263MG
228 nM: 769-P
1520 nM: ABC-1
643 nM: KOSC-2
20.5 nM: HEL
381 nM: IST-MEL1
390 nM: ONS-76
110 nM: BB65-RCC
328 nM: RH-1
575 nM: DU-4475
not listed: D-392MG
> 2000 nM: all other assays above

COc1cc(F)c(F)c(Nc2ccc(I)cc2F)c1NS(=O)(=O)C1(CC(O)CO)CC1 (stereo not given)
57.2 nM: C32
66.7 nM: UACC-257
49 nM: HT-144
4700 nM: A704
431 nM: D-263MG
1890 nM: IST-MEL1
521 nM: LAN-6
1730 nM: COLO-829
500 nM: ONS-76
18.3 nM: DU-4475
2960 nM: KYSE-520 cell line
1240 nM: SNU1
2180 nM: BCPAP
490 nM: SCC-25
3660 nM: BB65-RCC
1680 nM: KOSC-2
32.4 nM: HL-60
1180 nM: CHL-1
not listed: A 172
> 5000 nM: all other assays above

Cn1cc(C2=C(c3ccc(Cl)cc3Cl)C(=O)NC2=O)c2ccccc21 [SB-216763]
9100 nM: SK-OV-3
not listed: DU-4475
> 10000 nM: all other assays above
